The record followed here is the supplement of paper PMC5412046.

One may read the viability as a read-out of living cells in per cent, often relative to untreated cells.

Test [1] has as its system SB.mhdgc-1. Description: viability at highest tested concentration (MAXR) relative to DMSO; higher = less cytotoxic. The note with it: SB.mhdgc-1 (hereditary c.1380delA CDH1 gastric cancer). The method in brief: (§1)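 Gastric cancer cells derived from hereditary or sporadic patients were treated for 48 h with compound at 11 threefold dilutions, with the top concentration recorded per compound. Viability was then read by CellTiter-Glo luminescence. Data are viability normalised to DMSO, at the highest concentration or as trapezoidal area under the curve.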

For test [2], the system named is SB.msgc-1. The test is described as above. The note with it: SB.msgc-1 (sporadic gastric cancer). The method in brief:
as §1

Test [3] relates to SB.mhdgc-1. Kind of test: area under the dose-response curve of % viability (trapezoidal, 11 doses) (% viability x log10 concentration); higher = less cytotoxic. To be noted: SB.mhdgc-1 (hereditary c.1380delA CDH1 gastric cancer). The method, boiled down:
as §1

The subject of test [4] is SB.msgc-1. The description is as above. To be noted: SB.msgc-1 (sporadic gastric cancer). The method in brief: as §1

The structures appear in SMILES notation.

Take `COc1cc(C(=O)NC2CCN(C)CC2)ccc1Nc1ncc2c(n1)N(C1CCCC1)CCC(=O)N2C(C)C` (top concentration 46.0829 µM): the viability in test [1] was found to be 4.01%; in test [2], 28.1%. Besides, the “area under the dose-response curve” value in test [3] was found to be 402; in test [4], 533.
With `COc1ccc(N(C(=O)Oc2c(C)cccc2C)c2ccnc(Nc3ccc(N4CCN(C)CC4)cc3)n2)c(OC)c1` (top concentration 46.0829 µM), the values for the viability in test [1] and in test [2] were 47.4% and 39.9%, respectively. The “area under the dose-response curve” value was 350 in test [3] and 417 in test [4].
For `COCCOc1ccc2c(c1)ncn2-c1ccc2cccc(N3CCC(N)CC3)c2n1` (top concentration 46.0829 µM) the same measures were 3.21%, 43.4%, 424 and 446.
With `C[C@H](c1ccc(F)cc1CCCC(=O)O)N(c1cc(F)ccc1F)[S+](=O)([O-])c1ccc(Cl)cc1` (top concentration 46.0829 µM), the viability in test [1] is 40.2%; in test [2], 70.5%. Moreover, the results for the “area under the dose-response curve” value in test [3] and in test [4] were 450 and 509, respectively.
For `C[C@@H](N)c1ccc(C(=O)Nc2ccnc3[nH]ccc23)cc1` (top concentration 46.0829 µM), the viability in test [1] was determined as 12.7%; in test [2] it was 39.3%. The “area under the dose-response curve” value in test [3] amounted to 402; in test [4], 474.
As to `C[C@H](NC(=O)c1sccc1OCc1ccc(Cl)cc1)c1ccccc1` (top concentration 46.0829 µM), the figures for the viability in test [1] and in test [2] were 45.7% and 43.3%, respectively. Further, the “area under the dose-response curve” value came to 435 in test [3] and 491 in test [4].
The corresponding values for `C[C@H](NC(=O)[C@@H](O)c1cc(F)cc(F)c1)C(=O)N[C@@H]1C(=O)N(C)c2ccccc2-c2ccccc21` (top concentration 46.0829 µM) are 88.9%, 97.4%, 500 and 522.
Regarding `C[C@](Cc1c[nH]c2ccccc12)(NC(=O)OC1C2CC3CC(C2)CC1C3)C(=O)NC[C@H](NC(=O)CCC(=O)O)c1ccccc1` (stereo not given in full) (top concentration 46.0829 µM), the viability in test [1] came to 59.9%; in test [2], 101%. The “area under the dose-response curve” value was found to be 498 in test [3] and 513 in test [4].
For `C[C@]\1(CCS\C(=N1)N)C2=CC(=C(F)C=C2F)C3=CN=CN=C3` (top concentration 46.0829 µM) the same measures were 33.3%, 44.7%, 464 and 500.
The corresponding values for `C[N]1C=C(C=N1)C2=CC=C3N=CC\4=C(N(C(=O)\C=C4)C5=CC6=C(CCN6C(=O)C=C)C=C5)C3=C2` (top concentration 46.0829 µM) are 1.79%, 41.1%, 381 and 496.
As for `CC(=O)N1CCN(c2ccc(OCc3nn(C)c(C)c3-c3cccc4c(CCCOc5cc(C)c(Cl)c(C)c5)c(C(=O)O)n(Cc5cccnc5)c34)cc2)CC1` (top concentration 46.0829 µM), the results for the viability in test [1] and in test [2] were 48.8% and 26.9%, respectively. For the same molecule, the “area under the dose-response curve” value in test [3] was determined as 425; in test [4], 498.
For `CC(=O)N1CCN(c2ccc(OCc3nn(C)c(C)c3-c3cccc4c(CCCOc5cccc6ccccc56)c(C(=O)O)n(Cc5cccnc5)c34)cc2)CC1` (top concentration 46.0829 µM) the same measures were 0.82%, 2.94%, 321 and 355.
For `O=C(NCC1CCOCC1)c1cnc(Nc2ccc(Cl)cc2Cl)nc1C(F)(F)F` (top concentration 46.0829 µM), the viability is 7.1% in test [1] and 6.36% in test [2]. Also, the “area under the dose-response curve” value in test [3] is 519; in test [4], 539.
As to `O=C(c1ccc(F)cc1)N1CCC[C@H](c2nc(-c3ccc(F)cc3)no2)C1` (top concentration 46.0829 µM), the viability in test [1] came to 76.5%; in test [2], 104%. In addition, the “area under the dose-response curve” value was found to be 500 in test [3] and 582 in test [4].
Regarding `NC(=O)c1noc([C@H](CCCC2CCCCC2)CC(=O)NO)n1` (top concentration 46.0829 µM), the viability in test [1] amounted to 41%; in test [2], 69.5%. Further, the “area under the dose-response curve” value worked out at 570 in test [3] and 563 in test [4].
As to `NC\1=N\C(=O)N(\C=C1F)[C@H]2C[C@H](O)[C@@H](CO)O2` (top concentration 46.0829 µM), the viability stood at 32.6% in test [1] and 47.4% in test [2]. Moreover, the “area under the dose-response curve” value in test [3] came out at 229; in test [4], 369.
As to `N[S+]([O-])(=O)C1=CC=C(NC/2=C/C(=O)C3=CC=CC=C3C2=O)C=C1` (top concentration 46.0829 µM), the viability in test [1] was 0.53%; in test [2] it was 34.2%. Also, the entries for the “area under the dose-response curve” value in test [3] and in test [4] were 301 and 500, respectively.
On to `O=C(NC1CC1)c1cccc(-c2ccc3c(NC(=O)C4CC4)n[nH]c3c2)c1` (top concentration 46.0829 µM), for which the viability in test [1] came to 22.1%; in test [2], 34.6%. The figures for the “area under the dose-response curve” value in test [3] and in test [4] were 289 and 398, respectively.
Consider `O=C1NCCc2[nH]c(-c3ccncc3)cc21` (top concentration 46.0829 µM), for which the viability in test [1] was 79.8%; in test [2], 51%. For the same molecule, the “area under the dose-response curve” value in test [3] worked out at 472; in test [4], 450.
Regarding `O=C(O)C1CCCN(CCC=C(c2ccccc2)c2ccccc2)C1` (stereo not given) (top concentration 46.0829 µM), the values for the viability in test [1] and in test [2] were 47.8% and 60.3%, respectively. The figures for the “area under the dose-response curve” value in test [3] and in test [4] were 506 and 523, respectively.
Turning to `O=[S+]([O-])(O)c1ccc2cc(/N=N/c3cc([S+](=O)([O-])O)c4cccnc4c3O)ccc2c1` (top concentration 46.0829 µM), the figures for the viability in test [1] and in test [2] were 35.2% and 36.3%, respectively. Also, the “area under the dose-response curve” value came out at 509 in test [3] and 513 in test [4].
Take `Oc1ccc(C2CCN(c3ccnc4ccccc34)CC2)cc1O` (top concentration 46.0829 µM): the values for the viability in test [1] and in test [2] were 43.7% and 74.5%, respectively. The “area under the dose-response curve” value in test [3] amounted to 408; in test [4], 507.
Consider `OC1CCC(Nc2ncc3nc(Nc4c(F)cc(F)cc4F)n([C@@H]4CCOC4)c3n2)CC1` (stereo not given in full) (top concentration 46.0829 µM), for which the viability in test [1] turned out to be 92.7%; in test [2], 97%. Besides, the “area under the dose-response curve” value is 505 in test [3] and 502 in test [4].
In the case of `OCCCNc1cc(-c2ccnc(Nc3cccc(Cl)c3)n2)ccn1` (top concentration 46.0829 µM), the viability in test [1] was found to be 23.2%; in test [2], 38.1%. In addition, the “area under the dose-response curve” value in test [3] worked out at 360; in test [4], 369.
For the molecule `O=[N+]([O-])c1ccc(Nc2ccccc2-c2ccccc2)c2nonc12` (top concentration 46.0829 µM), the viability was 35.7% in test [1] and 42.5% in test [2]. Moreover, the “area under the dose-response curve” value in test [3] stood at 423; in test [4], 436.
